Here are results for six molecules from patent US11980631B2, “β-lactamase inhibitors” (priority 2017, dated 2024).

Like-named read-outs stand apart in the source and are kept apart here.

In assay [1] the target is BlaC (Mycobacterium tuberculosis (strain ATCC 25618 / H37Rv), UniProt P9WKD3). The assay is described as follows: BlaC inhibition assay (FC5 hydrolysis, fluorescence). It is filed as biochemical. The protocol: Recombinant BlaC, with an N-terminal His-tag, was produced in E. coli BL21(DE3) cells using auto-induction medium supplemented with 50 μg mL^−1 ampicillin. Cells were grown for four hours at 37° C. before cooling to 18° C. and continuing growth overnight. Cells were harvested by centrifugation (10 min, 10000 g).
FC5 was stored as a 2.5 mM solution in assay buffer supplemented with 10% (v/v) DMSO. Fluorescence measurements were made using a PHERAstar multi-mode plate reader (BMG Labtech). All assays were carried out at 25° C. Fluorescence assays were carried out using black 96 well format half area clear® plates (Greiner Bio-One) with a final assay volume of 100 μL. FC5 hydrolysis was followed by fluorescence (λex=380 nm, λem=460 nm) corresponding to the release of the umbelliferone fluorophore. The optimum concentration of enzyme for steady-state measurements was determined by examining the rate of substrate hydrolysis at varied concentrations of enzyme, with the concentration at which the initial rate remained constant for 5-10 min being selected as an appropriate enzyme concentration. Initial rates of substrate hydrolysis were determined at varying substrate concentrations. Steady-state kinetic parameters were determined by fitting of initial rates to the Michaelis-Menten equation using GraphPad Prism 5 software.
Inhibition assays were performed by monitoring the initial rate of FC5 hydrolysis via fluorescence at a range of inhibitor concentrations. Inhibitors were stored either as solids or as 100 mM stock solutions in DMSO, these were diluted to appropriate concentrations in the assay buffer. Typically inhibition assays were carried out using black 384 well format pclear® plates (Griener Bio-One) with a final assay volume of 25 μL. Enzyme concentrations were chosen to give a linear rate of FC5 hydrolysis over the first 5 min of the assay time with an FC5 concentration of 5 μM. Components were added in the following order and volumes:
The enzyme was incubated with the inhibitor for 10 min prior to initiation of the reaction by the addition of the substrate. The residual activities were calculated using the following formula:
[formula] IC50 values were calculated by fitting of residual residual activity curves using GraphPad Prism 5 software.

Assay [2] has as its system S. maltophilia. As to the kind of experiment: microbe, parasite or virus in culture. Particulars: no inhibitor; for MIC: Stenotrophomonas maltophilia. It is filed as cell-based, Stenotrophomonas maltophilia. The method, then:
S. maltophilia clinical isolates were K279a, a well characterised isolate from Bristol, UK, or were obtained from the SENTRY antimicrobial resistance survey, as previously reported. […] All growth media were from Oxoid. Chemicals were from Sigma, unless otherwise stated.
Susceptibility to β-lactams in bacterial isolates was determined using the CLSI microtitre minimum inhibitory concentration (MIC) methodology with Muller-Hinton Broth using 96 well plates (Corning, Costar). The MIC was determined as the lowest concentration of β-lactam required to entirely suppress growth. Inhibitor concentrations were kept constant at 2 mg/L or 10 mg/L in all assays. Interpretation of susceptibility/resistance was by reference to CLSI clinical breakpoints for S. maltophilia (ceftazidime) and for Pseudomonas aeruginosa (for aztreonam and meropenem, since no S. maltophilia breakpoints are available).

Assay [3] concerns the target L1 (class B3 MBL) (Stenotrophomonas maltophilia (Pseudomonas maltophilia) (Xanthomonas maltophilia), UniProt P52700). The assay is described as follows: Steady-state hydrolysis of β-lactams by purified L1. The format is biochemical, S. maltophilia. The text has this: (§1) As a prelude to investigation the effects of β-lactamase inhibitors, the hydrolysis of a range of candidate β-lactams in vitro by purified L1 (class B3 MBL) and L2 (class A ESBL) under steady state conditions were investigated.

Assay [4] deals with L2 (class A ESBL) (Stenotrophomonas maltophilia (Pseudomonas maltophilia) (Xanthomonas maltophilia), UniProt P96465). The assay is described as follows: Steady-state hydrolysis of β-lactams by purified L2. It is filed as biochemical, S. maltophilia.
From the text: as §1

L2 (class A ESBL), sequence (P96465 36-303 limits assumed): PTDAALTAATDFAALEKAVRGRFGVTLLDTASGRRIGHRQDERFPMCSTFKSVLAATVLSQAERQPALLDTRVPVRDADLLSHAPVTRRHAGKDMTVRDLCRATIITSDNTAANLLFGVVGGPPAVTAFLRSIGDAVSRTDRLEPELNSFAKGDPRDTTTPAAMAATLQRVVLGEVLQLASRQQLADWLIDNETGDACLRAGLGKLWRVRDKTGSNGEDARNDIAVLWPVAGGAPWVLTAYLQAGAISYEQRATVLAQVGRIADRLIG
BlaC, sequence (P9WKD3 35-307 limits assumed): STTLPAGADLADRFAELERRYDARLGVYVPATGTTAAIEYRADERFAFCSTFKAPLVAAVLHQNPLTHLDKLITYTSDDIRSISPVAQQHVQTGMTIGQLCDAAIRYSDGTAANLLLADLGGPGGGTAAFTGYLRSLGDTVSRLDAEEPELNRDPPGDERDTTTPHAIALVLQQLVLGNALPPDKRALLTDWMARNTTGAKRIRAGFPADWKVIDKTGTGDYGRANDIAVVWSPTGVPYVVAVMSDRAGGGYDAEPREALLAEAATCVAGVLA
L1 (class B3 MBL), sequence (P52700 whole entry, looked up): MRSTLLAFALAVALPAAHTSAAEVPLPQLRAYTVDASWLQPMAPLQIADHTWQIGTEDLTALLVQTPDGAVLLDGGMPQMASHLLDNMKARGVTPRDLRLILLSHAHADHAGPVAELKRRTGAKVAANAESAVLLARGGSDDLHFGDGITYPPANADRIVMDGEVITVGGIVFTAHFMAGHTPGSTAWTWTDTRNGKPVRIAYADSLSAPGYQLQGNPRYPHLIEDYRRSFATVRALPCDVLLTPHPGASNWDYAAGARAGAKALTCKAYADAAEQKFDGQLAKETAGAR

Broadly, the IC50 is the concentration that inhibits the measured activity by half. Read a low IC50 as greater potency in that assay. `C[C@@H](O)[C@H]1C(=O)N2C(C(=O)O)=C([C@H]3CCCO3)S[C@H]12` [Faropenem]: the 50% inhibitory concentration (IC50) is 3.72 µM in assay [1] (pre-incubation time 0 min), 2.51 µM in assay [1] (pre-incubation time 10 min) and 3.55 µM in assay [1] (pre-incubation time 60 min).

As a reminder, the pIC50 is −log10 of the IC50, conventionally taken in molar units. A lower pIC50 goes with a high IC50. For `C[C@@H](O)[C@H]1C(=O)N2C(C(=O)O)=C(SCCN=CN)C[C@H]12` [Imipenem], the negative-log IC50 (pIC50) was determined as 5.59 ± 0.01 in assay [1] (pre-incubation time 0 min), 6.09 ± 0.02 in assay [1] (pre-incubation time 10 min) and 6.45 ± 0.05 in assay [1] (pre-incubation time 60 min).

As for `C[C@H]1[C@H](NC(=O)/C(=N\OC(C)(C)C(=O)O)c2csc(N)n2)C(=O)N1S(=O)(=O)O` [Aztreonam], the MIC was 128 µg/mL in assay [2] (read-out: MIC of the β-lactam alone (−), CI-20); 128 µg/mL in assay [2] (read-out: MIC of the β-lactam alone (−), CI-29); 256 µg/mL in assay [2] (read-out: MIC of the β-lactam alone (−), CI-31); 128 µg/mL in assay [2] (read-out: MIC of the β-lactam alone (−), K279a); 128 µg/mL in assay [2] (read-out: MIC of the β-lactam alone (−), K AMI 32); 256 µg/mL in assay [2] (read-out: MIC of the β-lactam alone (−), K CAZ 10). Moreover, the MIC in assay [2] (read-out: MIC of the β-lactam alone (−), K MOX 8) was 128 µg/mL.

By Km is commonly meant the concentration of substrate that gives half-maximal velocity. The kcat is the maximal rate divided by the concentration of active sites. In the case of `C[C@@H](O)[C@H]1C(=O)N2C(C(=O)O)=C(S[C@@H]3CN[C@H](C(=O)N(C)C)C3)[C@H](C)[C@H]12` [Meropenem], the “MIC of the β-lactam alone (−)” value in assay [2] (CI-20) worked out at 64 µg/mL; in assay [2] (CI-29) it was 32 µg/mL; in assay [2] (CI-31), 256 µg/mL; in assay [2] (K279a), 8 µg/mL; in assay [2] (K AMI 32) it was 4 µg/mL; in assay [2] (K CAZ 10), 64 µg/mL. The “MIC of the β-lactam alone (−)” value in assay [2] (K MOX 8) was 4 µg/mL. For the same molecule, the pIC50 in assay [1] (pre-incubation time 0 min) came to 5.72 ± 0.06; in assay [1] (pre-incubation time 10 min), 6.41 ± 0.05; in assay [1] (pre-incubation time 60 min), 7.16 ± 0.03. The Km in assay [3] amounted to 105 µM; in assay [4] it was 28.8 µM. Further, the kcat was 23.8 s⁻¹ in assay [3] and 0.028 s⁻¹ in assay [4]. Also, the kcat/KM was 227 (μM^−1 · s^−1) × 10^−3 in assay [3] and 0.97 (μM^−1 · s^−1) × 10^−3 in assay [4].

With `CC(C)(O/N=C(\C(=O)N[C@@H]1C(=O)N2C(C(=O)[O-])=C(C[n+]3ccccc3)CS[C@H]12)c1csc(N)n1)C(=O)O` [Ceftazidime], the “MIC of the β-lactam alone (−)” value amounted to 16 µg/mL in assay [2] (CI-20); 8 µg/mL in assay [2] (CI-29); 256 µg/mL in assay [2] (CI-31); 4 µg/mL in assay [2] (K279a); 2 µg/mL in assay [2] (K AMI 32); 64 µg/mL in assay [2] (K CAZ 10). Further, the “MIC of the β-lactam alone (−)” value in assay [2] (K MOX 8) amounted to 4 µg/mL. Also, the Km in assay [3] was found to be 260 µM; in assay [4], 548 µM. In addition, the kcat in assay [3] came out at 1.67 s⁻¹; in assay [4], 1.88 s⁻¹. Further, the values for the kcat/KM in assay [3] and in assay [4] were 6.4 (μM^−1 · s^−1) × 10^−3 and 3.4 (μM^−1 · s^−1) × 10^−3, respectively.

Take `C[C@]1(Cn2ccnn2)[C@H](C(=O)O)N2C(=O)C[C@H]2S1(=O)=O` [Tazobactam]: the values for the half-inhibitory concentration (IC50) in assay [1] (pre-incubation time 0 min), in assay [1] (pre-incubation time 10 min) and in assay [1] (pre-incubation time 60 min) were 6.46 µM, 2.75 µM and 3.55 µM, respectively.
